Values after ≈ are worked out from the molar mass of the structure shown.
Legend:
[1] = system: GSC-18; assay: MTS cell viability assay, GSC-18; assay type: cell-based; conditions: GSC18; Table 6, tumor stem cell, 72 hours; read-out: IC50 against GSC-18
Method: (§1) Primary viability screening: (1) the synthesized compounds 3a to 13d were respectively dissolved in DMSO to prepare a 40 μg/mL cannabicyclol and cannabicyclol derivative solutions.
(§2) (2) A control group: a 200 μL DMSO solvent.
(§3) (3) The solutions of compounds 3a to 13d were diluted in a twofold gradient to obtain cannabicyclol and cannabicyclol derivative solutions at concentrations of 40 μg/mL, 20 μg/mL, 10 μg/mL, 5 μg/mL, 2.5 μg/mL, 1.25 μg/mL, and 0.625 μg/mL, and 0.3125 μg/mL, respectively.
(§4) (4) Three glioblastoma stem cells (GSC-3, GSC-12, and GSC-18), three pancreatic cancer cell-derived stem cells (PANC-1-CSC, BXPC-3-CSC, and ASPC1-CSC), three liver cancer cell-derived stem cells (HepG2-CSC, MHCC97H-CSC, and SMMC7721-CSC), HEK-293T cells, 16 tumor cells (U251, U87, T98G, PANC1, BXPC3, ASPC1, HepG2, MHCC97H, SMMC7721, PC3, SKOV3, MDA-MB231, A549, HCT116, HEC-1B, MKN28), and differentiated glioblastoma stem cells (GSC-3diff and GSC-12diff) derived from GSC-3 and GSC-12 (all of the cells were provided by the Laboratory of Tumor Animal Model Preparation and Application Research, West China Hospital, Sichuan University) were inoculated into a 96-well plate at a concentration of 2×10^4 cells/well, and 100 μL of culture medium was then added to each well; […]
(§5) (10) The absorbance value at 490 nm was measured on an enzyme labeling apparatus, and the IC50 value was calculated.

[2] = system: SMMC7721 liver cancer; assay: Mouse liver cancer model (subcutaneous SMMC7721); assay type: in vivo, mice; conditions: for tumor volume compared with the control group: 23 days, FIG. 5; for tumor weight compared with the control group: day 23, FIG. 7
Method: Establishment of a mouse liver cancer model: 2×10^6 SMMC7721 (containing 30% Matrigel) was subcutaneously injected into the right inguinal region of the mice (NOD/ShiLtJGpt-Prkdc^em26cd52 Il2rg^em26cd22/Gpt(NCG)mic). The model was established when the tumor volume reached 50 mm^3.
According to the weight of mice: in treatment group 1, each mouse was intraperitoneally injected with a CBL solution at 50 mg/kg, and in treatment group 2, each mouse was intraperitoneally injected with a CBL solution at 100 mg/kg. The mice in a control group were injected with an equal volume of a DMSO solvent. The drug was administered once every 2 days, continuing for 23 days. Tumor volume was measured on days 3, 7, 10, 14, 17, 20, and 23. On day 23, the tumor tissue was collected and weighed. The tumor volume changes at different time points are shown in FIG. 5, the tumor tissue collected on day 23 is shown in FIG. 6, and the average tumor weight of different treatment groups is shown in FIG. 7.

[3] = system: SMMC7721-CSC; assay: MTS cell viability assay, SMMC7721-CSC; assay type: cell-based; conditions: Table 6, tumor stem cell, 72 hours; read-out: IC50 against SMMC7721-CSC
Method: as §1, §2, §3, §4, §5

[4] = system: A549; assay: MTS cell viability assay, A549; assay type: cell-based; conditions: Homo sapiens, Table 7, 72 hours, read-out: IC50 against A549
Method: as §1, §2, §3, §4, §5

[5] = system: MHCC97; assay: MTS cell viability assay, MHCC97; assay type: cell-based; conditions: Homo sapiens, Table 7, 72 hours, read-out: IC50 against MHCC97
Method: as §1, §2, §3, §4, §5

[6] = system: HepG2-CSC; assay: MTS cell viability assay, HepG2-CSC; assay type: cell-based; conditions: Table 6, tumor stem cell, 72 hours; read-out: IC50 against HepG2-CSC
Method: as §1, §2, §3, §4, §5

[7] = system: HEC18; assay: MTS cell viability assay, HEC18; assay type: cell-based; conditions: Table 7, 72 hours; read-out: IC50 against HEC18
Method: as §1, §2, §3, §4, §5

[8] = treatment group 1, 50 mg/kg intraperitoneally once every 2 days
[9] = treatment group 2, 100 mg/kg intraperitoneally once every 2 days

CCCCCc1cc(O)c2c(c1)OC1(C)CCC3C1C2C3(C)C (centres unmarked) [Compound 3a, cannabicyclol]
IC50 [1]: 6.4 µg/mL (≈ 20.4 µM) | inhibitory effect on liver cancer, 100 mg/kg compared to 50 mg/kg ([2]; 100 mg/kg versus 50 mg/kg dosage, intraperitoneal): better inhibitory effect | tumor volume compared with the control group [2, 8]: significantly inhibited | tumor weight compared with the control group [2, 8]: significantly inhibited | tumor volume compared with the control group [2, 9]: significantly inhibited | tumor weight compared with the control group [2, 9]: significantly inhibited | IC50 [3]: 3.85 µg/mL (≈ 12.2 µM) | IC50 [4]: > 40 µg/mL | IC50 [5]: > 40 µg/mL | IC50 [6]: 2.37 µg/mL (≈ 7.54 µM) | IC50 [7]: > 40 µg/mL

Source: patent US20250353825A1, “CANNABICYCLOL DERIVATIVES AND PREPARATION METHODS THEREOF” (priority 2023, published 2025)
